For twelve molecules, GI50 and TGI results are on record in PubChem BioAssay (NCI).

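Tested at 5 concentrations; 48 h exposure; 96-well plates; endpoints linearly interpolated, else capped at highest concentration. GI50 is the concentration that inhibits growth by half. At the TGI there is no net growth.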

Common to all, as to assay: NCI anticancer screen, dose series, 48 h
Experiment [1] concerns MALME-3M melanoma.
For experiment [2], the system named is SF-295 CNS.
The subject of experiment [3] is NCI-H226 lung.
The subject of experiment [4] is SK-MEL-5 melanoma.
For experiment [5], the system named is NCI-H522 lung.
For experiment [6], the system named is OVCAR-4 ovarian.
The test system of experiment [7] is SK-OV-3 ovarian.
The test system of experiment [8] is A498 renal.
For experiment [9], the system named is M14 melanoma.
The subject of experiment [10] is HL-60(TB) leukemia.

For the molecule `C=C(C)[C@@H]1CC[C@]2(C(=O)N3CCN(C)CC3)CC[C@]3(C)[C@H](CC[C@@H]4[C@@]5(C)CC[C@H](O)C(C)(C)[C@@H]5CC[C@]43C)[C@@H]12`, the GI50 was 1.92 µM in experiment [1]; 1.68 µM in experiment [2]; 2.07 µM in experiment [3]; 1.72 µM in [4]; 1.92 µM in experiment [5]; 1.77 µM in experiment [6]. Moreover, the GI50 in experiment [7] was 1.84 µM; in [8], 1.5 µM; in experiment [9], 1.89 µM. Besides, the TGI in experiment [1] worked out at 3.83 µM; in experiment [2] it was 3.27 µM; in [3], 5 µM; in experiment [4], 3.15 µM; in [5], 3.8 µM; in experiment [6], 3.37 µM. Moreover, the TGI in experiment [7] came out at 3.35 µM; in [8], 2.9 µM; in [9], 3.76 µM.
On to `O=C(NCCCl)NCc1ccccc1`, for which the TGI in [1], in experiment [2], in experiment [3], in [10], in experiment [4] and in [5] was over 100 µM each time. Also, the TGI in [6], in experiment [7] and in [8] was over 100 µM each time.
Consider `CN(CCCCN)c1ccc2c(=O)[nH][nH]c(=O)c2c1`, for which the TGI in [1], in experiment [2], in [3], in [10], in experiment [5] and in experiment [6] was over 100 µM in each case. The TGI in [7], in [8] and in experiment [9] was over 100 µM each time.
As to `NCCCCCCCCCn1c2c(c3ccccc3c1=O)C(=O)c1ccccc1-2`, the GI50 is 9.17 µM in experiment [1]; 9.67 µM in experiment [2]; 7.97 µM in [10]; 8.4 µM in experiment [4]; 8.83 µM in experiment [5]; 10.3 µM in experiment [6]. In addition, the GI50 was 10.1 µM in [7], 7.74 µM in experiment [8] and 9.67 µM in experiment [9]. Also, the TGI in [1] was 21.8 µM; in experiment [2], 20.8 µM; in experiment [10], 19.8 µM; in experiment [4], 17.7 µM; in experiment [5], 24.4 µM; in [6] it was 25.9 µM. The values for the TGI in [7], in experiment [8] and in [9] were 18.7 µM, 16.4 µM and 18 µM, respectively.
`Cn1c(=O)c(-c2c(Cl)cccc2Cl)cc2cnc(Nc3ccc(I)cc3)nc21`: the GI50 in [1] was 0.413 µM; in experiment [2], 0.147 µM; in [3], 0.182 µM; in experiment [4] it was under 0.0104 µM; in experiment [5] it was 0.457 µM; in experiment [6], 0.213 µM. The GI50 in experiment [7] is 0.0734 µM; in [8] it was under 0.01 µM. The TGI was 3.09 µM in experiment [1]; 1.41 µM in [2]; 0.157 µM in experiment [4]; 1.89 µM in experiment [5]; 7.49 µM in [6]; under 0.01 µM in experiment [8]. For the same molecule, in [9], the TGI was determined as 0.346 µM.
As for `CN(CC1NCCCC1O)C12CC3CC(CC(C3)C1)C2` (stereo not given), the TGI in experiment [1], in experiment [2], in experiment [3], in experiment [10], in experiment [5] and in [6] was over 100 µM each time. The TGI in [7], in experiment [8] and in [9] was over 100 µM throughout.
Turning to `C[C@H]1CCC2C(CN3CCCCC3)C(=O)OC2[C@]2(C)C(=O)CC(N3CCCCC3)C12O` (stereo not given in full), the TGI in experiment [1] was 47.5 µM; in experiment [2], 22.3 µM; in [3] it was 6.73 µM; in experiment [10] it was 10.6 µM; in [4], 16.3 µM; in experiment [5], 3.25 µM. In addition, the TGI in experiment [7] amounted to 79.9 µM; in [8], 12.8 µM.
In the case of `CSCC(COC(C)=O)(CSC)c1ccncc1`, the TGI in experiment [1], in experiment [2], in experiment [10], in experiment [4], in experiment [5] and in [6] was over 100 µM throughout. In addition, the TGI in experiment [7], in experiment [8] and in experiment [9] was over 100 µM throughout.
Turning to `C/C(CC(=O)Nc1ccc([N+](=O)[O-])cc1)=N\Nc1ccc([N+](=O)[O-])cc1[N+](=O)[O-]`, the TGI in experiment [1] was over 100 µM; in experiment [2] it was over 100 µM; in experiment [3], over 100 µM; in [10] it was over 100 µM; in [4], over 100 µM; in [5], 85.5 µM. Moreover, the TGI in experiment [7], in [8] and in [9] was over 100 µM each time.
Regarding `COC(=O)Cc1nn2c(nc1=O)sc1ccc3ccccc3c12`, the TGI in [1], in experiment [3], in experiment [10], in experiment [4], in [5] and in experiment [6] was over 100 µM in each case. The TGI in [7], in experiment [8] and in experiment [9] was over 100 µM in each case.
In the case of `CC(C)OC(=O)c1cccnc1/C=N/O`, the TGI in [1], in experiment [2], in experiment [3], in experiment [10], in experiment [4] and in experiment [5] was over 100 µM each time. Moreover, the TGI in [7], in experiment [8] and in experiment [9] was over 100 µM in each case.
Consider `Cc1ccnc(NC(c2ccccc2)c2ccc3cccnc3c2O)c1` (stereo not given), for which the GI50 in experiment [1] is 2.89 µM; in experiment [2], 2.42 µM; in [3] it was 4.48 µM; in experiment [10], 1.7 µM; in [4], 4.31 µM; in experiment [6], 3.2 µM. For the same molecule, the GI50 was 4.36 µM in [7], 2.08 µM in [8] and 3.09 µM in [9]. The TGI in experiment [1] worked out at 34.9 µM; in experiment [2], 16.3 µM; in [3], 44.6 µM; in experiment [10], 5.4 µM; in experiment [4], 15.6 µM; in [6] it was 27.1 µM. Also, the TGI in experiment [7] was over 100 µM; in experiment [8], 9.55 µM; in experiment [9], 29.2 µM.
